In patent publication US20190046446A1, “APO-E MODIFIED LIPID NANOPARTICLES FOR DRUG DELIVERY TO TARGETED TISSUES AND THERAPEUTIC METHODS” (Eriochem USA, LLC, priority 2016, published 2019):
“And” between values parts separate entries of the source, which are not always exact repeats. Equal values may be shown once. Read-outs that look alike come from different tables or passages of the source.

Key:
[1] = tested on: A549 (lung cancer epithelial cells); test: In vitro cytotoxicity assay (MTS), A549; type: cell-based, human
Method: 50 μL of the cell suspensions were seeded in 96-well plates in duplicate with Dulbecco's basal medium plus 10% fetal bovine serum supplemented with 10% fetal bovine serum (FBS) for PC-3, and with DMEM/Ham's F12 medium containing 10% FBS, 1% 1-glutamine for A549 cell line. Both were maintained in culture for 24 hours. The cells were then treated with serial diluted concentrations of DCX starting from 100 nM and incubated for 48 hours. At the end of incubation, 20 μL/well of MTS/PMs solution (2 mL of MTS with 100 μL of PMS solution) were added. Then, plates were incubated at 37° C., 5% CO2 for 4 hours. […] The result allowed for conditions for evaluating the growth inhibition of the Nano+DCX and Nano+DCX+ApoE3 to be defined.
(§1) Absorbance values obtained from the in vitro cytotoxicity assay of DCX, Nano+DCX, and Nano+DCX+ApoE3 samples were plotted based on the DCX concentration employed, using OriginPro 8 software (ORIGINLAB Corporation, USA). The IC50 (nM) of each of the samples was determined at 50% of the maximum absorbance value obtained, corresponding to the value obtained for the growth control. The anti-proliferation effect shown on different cells with DCX, Nano+DCX, and Nano+DCX+ApoE3 decreased cell proliferation.

[2] = tested on: PC3 (prostate cancer epithelial cells); test: In vitro cytotoxicity assay (MTS), PC3; type: cell-based, human
Method: 50 μL of the cell suspensions were seeded in 96-well plates in duplicate with Dulbecco's basal medium plus 10% fetal bovine serum supplemented with 10% fetal bovine serum (FBS) for PC-3, and with DMEM/Ham's F12 medium containing 10% FBS, 1% 1-glutamine for A549 cell line. Both were maintained in culture for 24 hours. The cells were then treated with serial diluted concentrations of DCX starting from 100 nM and incubated for 48 hours. At the end of incubation, 20 μL/well of MTS/PMs solution (2 mL of MTS with 100 μL of PMS solution) were added. Then, plates were incubated at 37° C., 5% CO2 for 4 hours.
as §1, with “control.” for “control. The anti-proliferation effect shown on different cells with DCX, Nano+DCX, and Nano+DCX+ApoE3 decreased cell proliferation.”

With CC(=O)O[C@@]12CO[C@@H]1C[C@H](O)[C@@]1(C)C(=O)[C@H](O)C3=C(C)[C@@H](OC(=O)[C@H](O)[C@@H](NC(=O)OC(C)(C)C)c4ccccc4)C[C@@](O)([C@@H](OC(=O)c4ccccc4)[C@H]21)C3(C)C [TAXOTERE, Docetaxel] the IC50 ([1]; Homo sapiens, A549, 48 h, Normal Serum, 48 hours, read-out: IC50 in A549, individual tests) was 8.75 nM, the IC50 ([1]; Homo sapiens, A549, 48 h, Serum Free of Lipoprotein, 48 hours, read-out: IC50 in A549, individual tests) was 25.5 nM and the IC50 ([1]; Homo sapiens, A549, LP-FREE SERUM, Table 18, read-out: IC50 A549) was 34 nM. For the same molecule, the IC50 ([1]; Homo sapiens, A549, NORMAL SERUM, Table 18, read-out: IC50 A549) was 9 nM, the IC50 ([1]; Homo sapiens, A549, Normal Serum, average of tests, read-out: IC50 in A549) was 8.7 ± 0.7 nM and the IC50 ([1]; Homo sapiens, A549, Serum Free of Lipoprotein, average of tests, read-out: IC50 in A549) was 33.8 ± 3.2 nM. The IC50 ([1]; Homo sapiens, A549, lung cancer cell cultures, without lipoproteins, read-out: IC50) was 34 nM, the “Si A549” value ([1]; LP-FREE SERUM, SI=IC50 (Vero)/IC50 (A549)) was 4 and the “SI A549” value ([1]; NORMAL SERUM, SI=IC50 (Vero)/IC50 (A549), listed as DCX) was 16. The IC50 ([1]; Normal Serum, 48 hours, listed as DCX, read-out: IC50 in A549, individual tests) was 6.65 nM and 9.6 nM and 9.9 nM, the IC50 ([1]; Serum Free of Lipoprotein, 48 hours, listed as DCX, read-out: IC50 in A549, individual tests) was 33 nM and 37.5 nM and 45.5 nM and 36.5 nM and 25 nM and the “times more toxic in the presence of lipoproteins” value ([1]; lung cancer cell cultures) was 3.8 times. The IC50 ([2]; Homo sapiens, Epithelial cell, 48 h, Normal Serum, 48 hours, read-out: IC50 in PC3, individual tests) was 3.5 nM, the IC50 ([2]; Homo sapiens, Epithelial cell, LP-FREE SERUM, Table 18, read-out: IC50 PC3) was 30 nM and the IC50 ([2]; Homo sapiens, Epithelial cell, NORMAL SERUM, Table 18, read-out: IC50 PC3) was 4 nM. For the same molecule, the IC50 ([2]; Homo sapiens, Epithelial cell, Normal Serum, average of tests, read-out: IC50 in PC3) was 3.5 ± 0.1 nM, the IC50 ([2]; Homo sapiens, Epithelial cell, Serum Free of Lipoprotein, average of tests, read-out: IC50 in PC3) was 30.2 ± 6.3 nM and the IC50 ([2]; Homo sapiens, Epithelial cell, prostate cancer cell cultures, without lipoproteins, read-out: IC50) was 30 nM. The “Si PC3” value ([2]; LP-FREE SERUM, SI=IC50 (Vero)/IC50 (PC3)) was 4, the IC50 ([2]; Normal Serum, 48 hours, listed as DCX, read-out: IC50 in PC3, individual tests) was 3.9 nM and 3.3 nM and 3.4 nM and the IC50 ([2]; Serum Free of Lipoprotein, 48 hours, listed as DCX, read-out: IC50 in PC3, individual tests) was 37.5 nM and 34.5 nM and 39 nM and 10 nM. The “times more toxic in the presence of lipoproteins” value ([2]; prostate cancer cell cultures) was 7.5 times.
